What follows are molecules tested on HeLa (assay: Photocytotoxicity against human HeLa cells assessed as survival-fraction per unit uptake measured as concentration in incubation medium necessary to produce cell uptake of 0.3 nmol per mg of protein at which survival fraction was determined after 24 hrs in presence of 10 J/cm2 light).
Format: functional
With `CC1(C)Cc2cc3[nH]c(cc4nc(cc5[nH]c(cc1n2)cc5C(=O)O)CC4(C)C)cc3C(=O)O` the survival fraction was 0.35. With `CC1(C)Cc2cc3[nH]c(cc4nc(cc5[nH]c(cc1n2)cc5C(=O)NCCN)CC4(C)C)cc3C(=O)NCCN` the survival fraction was 0.88. For `CC1(C)Cc2cc3[nH]c(cc4nc(cc5[nH]c(cc1n2)cc5CN(CCO)CCO)CC4(C)C)cc3CN(CCO)CCO`, the survival fraction was 0.04. Work on `COCCOCCOCCOCCNCc1cc(CNCCOCCOCCOCCOC)cc(-c2c3nc(cc4[nH]c(cc4-c4ccc(C)cc4)c(OC)c4nc(cc5[nH]c2cc5-c2ccc(C)cc2)C(C)(C)C4)C(C)(C)C3)c1` yielded a survival fraction of 0.1. With `CC1(C)Cc2cc3[nH]c(cc4nc(cc5[nH]c(cc1n2)cc5-c1cc(OCCO)cc(OCCO)c1)CC4(C)C)cc3-c1cc(OCCO)cc(OCCO)c1` the survival fraction was 0.001. `CC1(C)Cc2cc3[nH]c(cc4nc(cc5[nH]c(cc1n2)cc5-c1cc(O)cc(O)c1)CC4(C)C)cc3-c1cc(O)cc(O)c1` showed a survival fraction of 0.01. Molecule `CC1(C)Cc2cc3[nH]c(cc4nc(cc5[nH]c(cc1n2)cc5C#CC[N+](C)(C)C)CC4(C)C)cc3C#CC[N+](C)(C)C.[Cl-].[Cl-]` has a survival fraction of 0.6. `CC1(C)Cc2cc3[nH]c(cc4nc(cc5[nH]c(cc1n2)cc5C(=O)N(CCN)CCN)CC4(C)C)cc3C(=O)N(CCN)CCN` was tested, and the survival fraction was 0.9. Molecule `CC1(C)Cc2cc3[nH]c(cc4nc(cc5[nH]c(cc1n2)cc5C(=O)N1CC[N+](C)(C)CC1)CC4(C)C)cc3C(=O)N1CC[N+](C)(C)CC1.[Cl-].[Cl-]` has a survival fraction of 1. `CC1(C)Cc2cc3[nH]c(cc4nc(cc5[nH]c(cc1n2)cc5C(=O)/C=C/c1cc(O)cc(O)c1)CC4(C)C)cc3C(=O)/C=C/c1cc(O)cc(O)c1` gave a survival fraction of 0.23. For `COCCN(CCOC)C(=O)c1cc2cc3nc(cc4[nH]c(cc5nc(cc1[nH]2)CC5(C)C)cc4C(=O)N(CCOC)CCOC)CC3(C)C`, the survival fraction was 0.02.
